Test results published in EP1203770A1 (priority 1992, dated 1994).

Target: T1, HIV-1 protease (Human immunodeficiency virus type 1 group M subtype B, UniProt P04585)
T1 construct: The protease (or proteinase), consisting of only 99 amino acids, is among the smallest enzymes known
Experiment: In vitro HIV protease inhibitory assay (HIV Protease FITC Assay)
Format: biochemical
Settings: for inhibition at 0.41 µM: HIV-1 Dose 0.410 uM; for inhibition at 0.41 µM / inhibition at 1.23 µM / inhibition at 3.7 µM / inhibition at 11 µM / inhibition at 33 µM / inhibition at 100 µM / inhibition at 0.123 µM / inhibition at 0.37 µM / inhibition at 1.1 µM / inhibition at 3.3 µM / inhibition at 10 µM / inhibition at 30 µM: read-out: HIV-1 Protease % Inhib; for inhibition at 1.23 µM: HIV-1 Dose 1.230 uM; for inhibition at 3.7 µM: HIV-1 Dose 3.700 uM; for inhibition at 11 µM: HIV-1 Dose 11.000 uM; for inhibition at 33 µM: HIV-1 Dose 33.000 uM; for inhibition at 100 µM: HIV-1 Dose 100.000 uM; for Ki: read-out: HIV-1 FITC Ki
Description: The HIV protease screening assay is based on a fluorescently labeled substrate which can be resolved from nonlabeled cleavage product using avidin-polystyrene particles, 0.7-0.9 µm. The substrate is biotinylated at the amino terminal arginine and fluorescently labeled with fluorescein isothiocynate (FITC) at the carboxyl terminal lysine. […] Substrate (20 µl of 0.2 µM), sample (10 µl of desired concentraion), and enzyme (10 µl of 0.1 µM) are added to a 96 well pandex plate. The assay is run in 0.1 M sodium acetate buffer at pH 5.5 in the presence of 1.0 M sodium chloride and 0.05% NP-40 and incubated in the dark for one hour at room temperature. Avidin coated polystyrene beads {40 µl of 0.1% (w/v)} are added and the incubation is continued in the dark for an additional half hour. The labeled cleavage product is separated from the unreacted substrate via filtration and is read on the Idexx Screen Machine. The data are analyzed by appropriate computer algorithms to ascertain percent inhibition values.

Row | Structure (SMILES) | inhibition at 0.41 µM [%] | inhibition at 1.23 µM [%] | inhibition at 3.7 µM [%] | inhibition at 11 µM [%] | inhibition at 33 µM [%] | inhibition at 100 µM [%] | Ki [nM] | inhibition at 0.123 µM (HIV-1 Dose 0.123 uM) [%] | inhibition at 0.37 µM (HIV-1 Dose 0.370 uM) [%] | inhibition at 1.1 µM (HIV-1 Dose 1.100 uM) [%] | inhibition at 3.3 µM (HIV-1 Dose 3.300 uM) [%] | inhibition at 10 µM (HIV-1 Dose 10.000 uM) [%] | inhibition at 30 µM (HIV-1 Dose 30.000 uM) [%] | HIV-1 Protease % Inhib (HIV-1 Dose 0.123 uM) [%] | HIV-1 Protease % Inhib (HIV-1 Dose 0.370 uM) [%] | HIV-1 Protease % Inhib (HIV-1 Dose 1.100 uM) [%] | HIV-1 Protease % Inhib (HIV-1 Dose 3.300 uM) [%] | HIV-1 Protease % Inhib (HIV-1 Dose 10.000 uM) [%] | HIV-1 Protease % Inhib (HIV-1 Dose 30.000 uM) [%]
1 | CCC(CC1CCCO1)c1cc(O)c(C(c2ccccc2)C2CC2)c(=O)o1 (stereo not drawn) [Example 56, 3-(Cyclopropyl-phenyl-methyl)-4-hydroxy-6-(1-(tetrahydro-furan-2-ylmethyl)-propyl)-pyran-2-one] | 92.6 | 97.7 | 106 | 117 | 119 | 109 | 37 | – | – | – | – | – | – | – | – | – | – | – | –
2 | CCC(Cc1cccs1)c1cc(O)c(C(c2ccccc2)C2CC2)c(=O)o1 (stereo not drawn) [Example 57, 3-(Cyclopropyi-phenyl-methyl)-4-hydroxy-6-(1-thiophen-2-ylmethyl-propyl)-pyran-2-one] | 76.7 | 89.4 | 103 | 108 | 114 | 116 | 63 | – | – | – | – | – | – | – | – | – | – | – | –
3 | CCC(CC1CCOCC1)c1cc(O)c(C(c2ccccc2)C2CC2)c(=O)o1 (stereo not drawn) [Example 58] | 74.5 | 91.1 | 107 | 108 | 115 | 110 | 48 | – | – | – | – | – | – | – | – | – | – | – | –
4 | CCC(Cc1ccco1)c1cc(O)c(C(c2ccccc2)C2CC2)c(=O)o1 (stereo not drawn) [Example 59, 3-(Cyclopropyl-phenyl-methyl)-6-(1-furan-2-ylmethyl-propyl)4-hydroxy-pyran-2-one] | 64.2 | 81.2 | 104 | 102 | 101 | 105 | 58 | – | – | – | – | – | – | – | – | – | – | – | –
5 | CCC(CC1OCCO1)c1cc(O)c(C(c2ccccc2)C2CC2)c(=O)o1 (stereo not drawn) [Example 60, 3-(Cyclopropyl-phenyl-methyl)-6-(1-(1,3)dioxolan-2-ylmethyl-propyl)-4-hydroxy-pyran-2-one] | 63.2 | 86.7 | 106 | 113 | 111 | 123 | 46 | – | – | – | – | – | – | – | – | – | – | – | –
6 | CCC(CC1CCCOC1)c1cc(O)c(C(c2ccccc2)C2CC2)c(=O)o1 (stereo not drawn) [Example 61, 3-(Cyclopropyl-phenyl-methyl)-4-hydroxy-6-(1-(tetrahydro-pyran-3-ylmethyl)-propyl)-pyran-2-one] | 100 | 101 | 108 | 111 | 111 | 103 | 13 | – | – | – | – | – | – | – | – | – | – | – | –
7 | CCC(CC1CCCCO1)c1cc(O)c(C(c2ccccc2)C2CC2)c(=O)o1 (stereo not drawn) [Example 62, 3-(Cyclopropyl-phenyl-methyl)-4-hydroxy-6-(1-(tetrahydro-pyran-2-ylmethyl)-propyl)-pyran-2-one] | 85.7 | 95.8 | 108 | 116 | 113 | 123 | 74 | – | – | – | – | – | – | – | – | – | – | – | –
8 | CCC(Cc1ccccn1)c1cc(O)c(C(c2ccccc2)C2CC2)c(=O)o1 (stereo not drawn) [Example 63, 3-(Cyclopropyl-phenyl-methyl)-4-hydroxy-6-(1-pyridin-2-ylmethyl-propyl)-pyran-2-one] | 68.5 | 95.8 | 101 | 110 | 112 | 117 | 79 | – | – | – | – | – | – | – | – | – | – | – | –
9 | CCC(CCCCl)c1cc(O)c(C(c2ccccc2)C2CC2)c(=O)o1 (stereo not drawn) [Example 64, 6-(4-Chloro-1-ethyl-butyl)-3-(cyclopropyl-phenyl-methyl)-4-hydroxy-pyran-2-one] | – | – | – | – | – | – | 44 | 13.7 | 53.9 | 87.7 | 103 | 109 | 119 | – | – | – | – | – | –
10 | CCC(CCC1OCCCO1)c1cc(O)c(C(c2ccccc2)C2CC2)c(=O)o1 (stereo not drawn) [Example 65, 3-(Cyclopropyl-phenyl-methyl)-6-(3-(1,3)dioxan-2-yl-1-ethyl-propyl)-4-hydroxy-pyran-2-one] | – | – | – | – | – | – | 141 | < 10 | 28 | 71.2 | 93.2 | 107 | 122 | – | – | – | – | – | –
11 | CCC(CCCl)c1cc(O)c(C(c2ccccc2)C2CC2)c(=O)o1 (stereo not drawn) [Example 66, 6-(3-Chloro-1-ethyl-propyl)-3-(cyclopropyl-phenyl-methyl)-4-hydroxy-pyran-2-one] | – | – | – | – | – | – | 53 | < 10 | 36 | 75.3 | 99.4 | 102 | 108 | – | – | – | – | – | –
12 | CCC(CCOC1CCCCO1)c1cc(O)c(C(c2ccccc2)C2CC2)c(=O)o1 (stereo not drawn) [Example 67] | – | – | – | – | – | – | 84 | – | – | – | – | – | – | <10 | 32.64 | 72.63 | 92.3 | 106.66 | 118.42
13 | CCC(Cc1ccncc1)c1cc(O)c(C(c2ccccc2)C2CC2)c(=O)o1 (stereo not drawn) [Example 68, 3-(Cyclopropyl-phenyl-methyl)-4-hydroxy-6-(1-pyridin-4-ylmethyl-propyl)-pyran-2-one] | – | – | – | – | – | – | 132 | < 10 | 15.1 | 47.7 | 80.3 | 98.7 | 112 | – | – | – | – | – | –
14 | CCC(CC(=O)N1CCOCC1)c1cc(O)c(C(c2ccccc2)C2CC2)c(=O)o1 (stereo not drawn) [Example 69, 3-(Cyclopropyl-phenyl-methyl)-6-(1-ethyl-3-morpholin-4-yl-3-oxo-propyl)-4-hydroxy-pyran-2-one] | – | – | – | – | – | – | – | < 10 | < 10 | 13.9 | 42.1 | 75.2 | 98.5 | – | – | – | – | – | –
15 | CCC(Cc1cccnc1)c1cc(O)c(C(c2ccccc2)C2CC2)c(=O)o1 (stereo not drawn) [Example 70, 3-(Cyclopropyl-phenyl-methyl)-4-hydroxy-6-(1-pyridin-3-ylmethyl-propyl)-pyran-2-one] | – | – | – | – | – | – | 64 | < 10 | 38.3 | 67.3 | 88.9 | 92.8 | 98.6 | – | – | – | – | – | –
16 | CCC(CCc1ccsc1)c1cc(O)c(C(c2ccccc2)C2CC2)c(=O)o1 (stereo not drawn) [Example 71, 3-(Cyclopropyl-phenyl-methyl)-6-(1-ethyl-3-thiophen-3-yl-propyl)-4-hydroxy-pyran-2-one] | – | – | – | – | – | – | 54 | 11.6 | 46.3 | 75 | 84 | 95.3 | 96.4 | – | – | – | – | – | –
17 | CCCC(CC1CCCOC1)c1cc(O)c(C(c2ccccc2)C2CC2)c(=O)o1 (stereo not drawn) [Example 72, 3-(Cyclopropyl-phenyl-methyl)-4-hydroxy-6-[1-(tetrahydro-pyran-3-ylmethyl)-butyl]-pyran-2-one] | – | – | – | – | – | – | 31 | 35 | 68.4 | 90.7 | 98.7 | 93.9 | 97.7 | – | – | – | – | – | –
18 | CCC(CCCN1CCOCC1)c1cc(O)c(C(c2ccccc2)C2CC2)c(=O)o1 (stereo not drawn) [Example 73, 3-(Cyclopropyl-phenyl-methyl)-6-(1-ethyl-4-morpholin-4-yl-butyl)-4-hydroxy-pyran-2-one] | – | – | – | – | – | – | – | < 10 | < 10 | < 10 | < 10 | 28.9 | 61.4 | – | – | – | – | – | –
19 | CCC(CC1COc2ccccc2O1)c1cc(O)c(C(c2ccccc2)C2CC2)c(=O)o1 (stereo not drawn) [Example 74, 3-(Cyclopropyl-phenyl-methyl)-6-[1-(2,3-dihydro-benzo[1,4]dioxin-2-ylmethyl)-propyl]-4-hydroxy-pyran-2-one] | – | – | – | – | – | – | 186 | < 10 | 17.5 | 53.4 | 81.4 | 96.7 | 106 | – | – | – | – | – | –
20 | CC(C)Cc1cc(O)c(C(c2ccccc2)C2CC2)c(=O)o1 (stereo not drawn) [Example 75, 3-(Cyclopropyl-phenyl-methyl)-4-hydroxy-6-isobutyl-pyran-2-one] | – | – | – | – | – | – | 127 | 11.5 | 33.8 | 66 | 86.6 | 98.5 | 104 | – | – | – | – | – | –
